The source of these data is ChEMBL document CHEMBL1201862, “PubChem BioAssay data set” (2004).

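Each compound was tested at five concentrations against cells in 96-well plates for 48 hours. At the GI50, growth is halved.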 The source made the active and inactive calls. No stated cut-off is given here; in the data, active = GI50 up to about 1.1 µM and inactive = higher.

Holding throughout (assay): NCI tumour cell line growth inhibition, 48 h
Assay [1] relates to NCI-H460.
Assay [2] has as its system MDA-MB-231.
Assay [3] relates to NCI-H522.
For assay [4], the system named is PC-3.
The test system of assay [5] is ACHN.
In assay [6] the test system is SF-539.
Assay [7] deals with BT-549.
Assay [8] deals with UACC-257.
Assay [9] relates to SF-295.
Assay [10] has as its system RXF 393.
In assay [11] the test system is SK-MEL-2.
In assay [12] the test system is TK-10.
The test system of assay [13] is NCI/ADR-RES.
The subject of assay [14] is SW-620.
Assay [15] deals with MDA-MB-435.
The test system of assay [16] is KM12.
For assay [17], the system named is COLO 205.
Assay [18] concerns UO-31.
The subject of assay [19] is RPMI-8226.
Assay [20] deals with OVCAR-5.

For the compound `Oc1cc(-c2cccc(OC(F)(F)F)c2)nc2cc3c(cc12)OCO3`, the GI50 in assay [1] is 0.0877 µM (active); in assay [2], 0.144 µM (active); in assay [3], 0.0441 µM (active); in assay [4], 0.0366 µM (active); in [5] it was > 32.7 µM (inactive); in [6] it was 0.084 µM (active). Also, the GI50 in assay [7] is 0.327 µM (active); in assay [8], 1.68 µM (inactive); in assay [9], 0.0845 µM (active); in assay [10], 0.166 µM (active); in assay [11], 0.169 µM (active); in assay [12], 5.19 µM (inactive). In addition, the GI50 was 0.0334 µM (active) in [13]; 0.0883 µM (active) in [14]; < 0.0156 µM (active) in assay [15]; 0.0968 µM (active) in assay [16]; 1.24 µM (inactive) in assay [17]; 0.174 µM (active) in assay [18]. Besides, the GI50 in [19] is 0.0508 µM (active).

As to `FC(F)(F)c1nc2nc(Cl)c(Cl)nc2n1CCCN1CCOCC1`, the GI50 in assay [1] is 52 µM (inactive); in assay [2], 78.2 µM (inactive); in [3] it was 29.4 µM (inactive); in assay [20], > 100 µM (inactive); in [4], 61.2 µM (inactive); in assay [5], > 100 µM (inactive). The GI50 in assay [6] was 72.4 µM (inactive); in [7], 56 µM (inactive); in [8], 24 µM (inactive); in assay [9], > 100 µM (inactive); in assay [10] it was 25.4 µM (inactive); in assay [11], 37.9 µM (inactive). Also, the GI50 was > 100 µM (inactive) in [12]; > 100 µM (inactive) in [13]; 42.9 µM (inactive) in [14]; 44.9 µM (inactive) in [15]; > 100 µM (inactive) in [16]; 54.6 µM (inactive) in assay [17]. The GI50 in assay [19] is 23.4 µM (inactive).

With `CC1CCN(CC(=O)N2c3ccccc3Sc3cc4ccccc4cc32)CC1`, the GI50 is 37.5 µM (inactive) in assay [1]; > 100 µM (inactive) in assay [2]; > 100 µM (inactive) in assay [3]; > 100 µM (inactive) in assay [20]; > 100 µM (inactive) in [4]; > 100 µM (inactive) in assay [5]. The GI50 in [6], in assay [7], in assay [8], in [9], in assay [10] and in assay [11] was > 100 µM (inactive) each time. Also, the GI50 in assay [12] was > 100 µM (inactive); in assay [13], > 100 µM (inactive); in assay [14], > 100 µM (inactive); in [15] it was > 100 µM (inactive); in assay [16] it was 51.9 µM (inactive); in [17], > 100 µM (inactive). Also, the GI50 in [18] and in [19] was > 100 µM (inactive) in each case.

For the compound `O=C1c2ccccc2C(=O)c2c(NC(=O)C(Cl)CCl)cccc21` (stereo not drawn), the GI50 in assay [1] is 6.32 µM (inactive); in [2] it was 6.53 µM (inactive); in [3], 2.16 µM (inactive); in assay [20] it was 15.6 µM (inactive); in [4], 9.33 µM (inactive); in assay [5] it was 13.8 µM (inactive). In addition, the GI50 is 4.83 µM (inactive) in assay [6]; 17.1 µM (inactive) in assay [7]; 14.7 µM (inactive) in [8]; 26.7 µM (inactive) in [9]; 6.64 µM (inactive) in assay [10]; 5.09 µM (inactive) in assay [11]. The GI50 in assay [12] is 4.37 µM (inactive); in assay [13] it was 23.1 µM (inactive); in assay [14] it was 2.86 µM (inactive); in assay [15], 7.11 µM (inactive); in assay [16], 2.58 µM (inactive); in [17] it was 6.47 µM (inactive). The GI50 is 10.6 µM (inactive) in assay [18] and 0.628 µM (active) in assay [19].

As for `Cn1c2ccccc2c(=NNc2ccc(S(N)(=O)=O)cc2)c2ccccc21`, the GI50 is 9.18 µM (inactive) in assay [1]; 9.23 µM (inactive) in assay [2]; 11.2 µM (inactive) in [3]; 24.4 µM (inactive) in assay [20]; 9.75 µM (inactive) in assay [4]; 8.05 µM (inactive) in assay [5]. Moreover, the GI50 is 22.5 µM (inactive) in assay [6]; 8.39 µM (inactive) in [7]; 17.1 µM (inactive) in assay [8]; 13.6 µM (inactive) in assay [9]; 16.2 µM (inactive) in [10]; 10.5 µM (inactive) in [11]. Moreover, the GI50 in assay [12] is 15 µM (inactive); in [13] it was 14.1 µM (inactive); in assay [14], 21.8 µM (inactive); in [15], 16.2 µM (inactive); in [16], 11.2 µM (inactive); in assay [17], 18.7 µM (inactive). The GI50 in assay [18] was 10.7 µM (inactive); in [19] it was 9.35 µM (inactive).

Take `C=CCCC(CCC=C)(C(=O)O)C(=O)O`: the GI50 in assay [1], in [2], in [3], in assay [20], in [4] and in assay [5] was > 100 µM (inactive) throughout. In addition, the GI50 in assay [6], in [7], in assay [8], in [9], in assay [10] and in assay [11] was > 100 µM (inactive) in each case. The GI50 in [12], in [13], in assay [14], in [15], in assay [16] and in [17] was > 100 µM (inactive) throughout. The GI50 in assay [18] and in [19] was > 100 µM (inactive) throughout.

For the compound `COc1cc(NS(C)(=O)=O)ccc1NCc1c[nH]c2ccc3nc(C)ccc3c12`, the GI50 in assay [1] was 68.1 µM (inactive); in assay [2] it was 61.1 µM (inactive); in assay [3], 28.4 µM (inactive); in assay [20], 39.5 µM (inactive); in [4], 43.9 µM (inactive); in [5] it was 33.9 µM (inactive). The GI50 is 78.2 µM (inactive) in [6]; > 100 µM (inactive) in [7]; 47.8 µM (inactive) in assay [8]; 48.8 µM (inactive) in assay [9]; 22.5 µM (inactive) in assay [10]; 23.8 µM (inactive) in assay [11]. Further, the GI50 in [12] is 38.7 µM (inactive); in [13], > 100 µM (inactive); in assay [14], 30.2 µM (inactive); in assay [15], 30.2 µM (inactive); in assay [16], 48.9 µM (inactive); in assay [17], 55 µM (inactive). The GI50 was 28.6 µM (inactive) in assay [18] and 17.1 µM (inactive) in assay [19].

As to `c1ccc2c(c1)[C@@H]1O[C@@H]1[C@@]13O[C@@]21[C@H]1O[C@H]1c1ccccc13`, the GI50 in [1] was 14.7 µM (inactive); in assay [2] it was 15.8 µM (inactive); in [3], 10.8 µM (inactive); in [20], 17.1 µM (inactive); in assay [4], 13.1 µM (inactive); in assay [5] it was 12.9 µM (inactive). In addition, the GI50 in [6] is 16.5 µM (inactive); in assay [7], 16.2 µM (inactive); in assay [8], 17.6 µM (inactive); in assay [9], 15.1 µM (inactive); in [10], 12.6 µM (inactive); in [11], 14.7 µM (inactive). For the same compound, the GI50 was 18.1 µM (inactive) in assay [12]; 16.3 µM (inactive) in assay [13]; 12.8 µM (inactive) in assay [14]; 13.7 µM (inactive) in [15]; 12.9 µM (inactive) in assay [16]; 15.7 µM (inactive) in [17]. The GI50 in assay [18] is 33.4 µM (inactive); in assay [19], 9.16 µM (inactive).

Consider `N#CCc1nc(-c2cc3c(ccc4ccccc43)oc2=O)cs1`, for which the GI50 in [1] was 43.1 µM (inactive); in assay [2] it was 17.9 µM (inactive); in assay [3] it was 13 µM (inactive); in assay [20], > 100 µM (inactive); in assay [4] it was 65.5 µM (inactive); in assay [5], 27.5 µM (inactive). The GI50 in assay [6] is 21.5 µM (inactive); in assay [7], 17.1 µM (inactive); in assay [8], 26.9 µM (inactive); in [9] it was 26.7 µM (inactive); in assay [10], 23.4 µM (inactive); in assay [11], 23.1 µM (inactive). Further, the GI50 in assay [12] is 18.1 µM (inactive); in assay [13], 23 µM (inactive); in [14], 91.8 µM (inactive); in [15], > 100 µM (inactive); in [16], 33.6 µM (inactive); in assay [17] it was > 100 µM (inactive). Besides, the GI50 in assay [18] is 38.9 µM (inactive); in assay [19] it was > 100 µM (inactive).

For the compound `c1ccc(/N=C2\c3ccsc3/C(=N/c3ccccc3)c3ccsc32)cc1`, the GI50 was 2.01 µM (inactive) in assay [1]; 1.77 µM (inactive) in assay [2]; 1.98 µM (inactive) in assay [3]; 1.67 µM (inactive) in assay [20]; 2.16 µM (inactive) in assay [4]; 1.71 µM (inactive) in assay [5]. The GI50 in [6] was 1.99 µM (inactive); in assay [7], 2.07 µM (inactive); in assay [8], 1.29 µM (inactive); in assay [9], 1.7 µM (inactive); in assay [10] it was 1.77 µM (inactive); in [11], 1.6 µM (inactive). The GI50 was 5.6 µM (inactive) in [12]; 1.98 µM (inactive) in assay [13]; 1.89 µM (inactive) in [14]; 0.213 µM (active) in assay [15]; 2.36 µM (inactive) in [16]; 2.63 µM (inactive) in assay [17]. Moreover, the GI50 is 2.09 µM (inactive) in assay [18] and 1.94 µM (inactive) in [19].
